Experimental data: patent US20250171432A1, “COMPOUNDS AND METHODS OF USE” (Tango Therapeutics, Inc., priority 2022, published 2025)

Key:
Format in all cases: cell-based
[1] = system: HAP1 MTAP-deleted cell line; assay: Viability assay (CellTiter-Glo), HAP1 MTAP-deleted; conditions: Homo sapiens, 168 h, HAP1 MTAP-deleted cells, 7 days
Method in brief: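 HAP1 MTAP-deleted and MTAP-intact cells seeded, then dosed next day (n=3, 0.2% DMSO) and grown 7 days. Viability by CellTiter-Glo luminescence, expressed as % of DMSO control per cell line.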

[2] = system: SDMA (PRMT5 activity) in HAP1 MTAP-intact cell line; assay: SDMA in-cell western assay, HAP1 MTAP-intact; conditions: Homo sapiens, SDMA in-cell western, HAP1 MTAP-intact cells, 24 hours compound incubation
[3] = system: SDMA (PRMT5 activity) in HAP1 MTAP-deleted cell line; assay: SDMA in-cell western assay, HAP1 MTAP-deleted; conditions: for IC50 / IC90: Homo sapiens, SDMA in-cell western, HAP1 MTAP-deleted cells, 24 hours compound incubation; for Hap1 MTAP intact/deleted ratio: ratio of SDMA IC50 in HAP1 MTAP-intact to HAP1 MTAP-deleted cell line

SMILES	IC50 [1] [nM]	IC50 ([2]; HAP1, 24 h) [nM]	IC50 [3] [nM]	IC90 [3] [nM]	Hap1 MTAP intact/deleted ratio [3]	IC50 [2] [nM]
CCc1cc(NC(=O)C(=O)N2C[C@@H](C)CC[C@@H]2c2ccc3cn([C@H]4CCCN(C)C4)nc3c2)cnc1N [Compound 104]	< 100	> 50	< 5	< 75	B (“B” indicates an IC50 ratio greater than or equal to 15 fold but lower than 30 fold)	
COc1ncc(NC(=O)C(=O)N2C[C@@H](C)CC[C@@H]2c2ccc3cn(C4CCOCC4)nc3c2)cc1C(N)=O [Compound 107, 2-methoxy-5-[[2-oxo-2-[(2R,5S)-5-methyl-2-(2-tetrahydropyran-4-ylindazol-6-yl)-1-piperidyl]acetyl]amino]pyridine-3-carboxamide]	100 to 1000	> 50	5 to 50	75 to 125	A (“A” indicates an IC50 ratio greater than or equal to 30 fold)	
CCc1cc(NC(=O)C(=O)N2C[C@@H](C)CC[C@@H]2c2ccc3nn([C@@H]4CCN(C)C(C)(C)C4)cc3c2)cnc1N [Compound 108]	< 100	5 to 50	< 5	< 75	B (“B” indicates an IC50 ratio greater than or equal to 15 fold but lower than 30 fold)	
CCc1cc(NC(=O)C(=O)N2C[C@@H](C)CC[C@@H]2c2ccc3cn(C4CCN(C)C(C)(C)C4)nc3c2)cnc1N (stereo partly drawn) [Compound 109, N-(6-amino-5-ethyl-3-pyridyl)-2-oxo-2-[(2R,5S)-5-methyl-2-[2-(1,2,2-trimethyl-4-piperidyl)indazol-6-yl]-1-piperidyl]acetamide]	< 100	5 to 50	< 5	< 75	B (“B” indicates an IC50 ratio greater than or equal to 15 fold but lower than 30 fold)	
Cc1cc2[nH]c(C(=O)N3C[C@@H](C)CC[C@@H]3c3ccc4sc(C5CCN(C)CC5)nc4c3)cc2nc1N [Compound 110, (5-amino-6-methyl-1H-pyrrolo[3,2-b]pyridin-2-yl)((2R,5S)-5-methyl-2-(2-(1-methylpiperidin-4-yl)benzo[d]thiazol-5-yl)piperidin-1-yl)methanone]	< 100	> 50	< 5	< 75	A (“A” indicates an IC50 ratio greater than or equal to 30 fold)	
CCc1cc(NC(=O)C(=O)N2C[C@@H](C)CC[C@@H]2c2ccc3cn([C@@H]4CCN(C)C4)nc3c2)cnc1N [Compound 112, N-(6-amino-5-ethylpyridin-3-yl)-2-((2R,5S)-5-methyl-2-(2-((R)-1-methylpyrrolidin-3-yl)-2H-indazol-6-yl)piperidin-1-yl)-2-oxoacetamide]	< 100	5 to 50	< 5	< 75	B (“B” indicates an IC50 ratio greater than or equal to 15 fold but lower than 30 fold)	
COc1ncc(NC(=O)C(=O)N2C[C@@H](C)CC[C@@H]2c2ccc3cc(C#N)c(C4CCN(C)CC4)nc3c2)cc1C(N)=O [Compound 113, 5-(2-((2R,5S)-2-(3-cyano-2-(1-methylpiperidin-4-yl)quinolin-7-yl)-5-methylpiperidin-1-yl)-2-oxoacetamido)-2-methoxynicotinamide]	< 100	> 50	< 5	< 75	A (“A” indicates an IC50 ratio greater than or equal to 30 fold)	
CCc1cc(NC(=O)C(=O)N2C[C@@H](C)CC[C@@H]2c2ccc3cn([C@H]4CCN(C)C4)nc3c2)cnc1N [Compound 117, N-(6-amino-5-ethylpyridin-3-yl)-2-((2R,5S)-5-methyl-2-(2-((S)-1-methylpyrrolidin-3-yl)-2H-indazol-6-yl)piperidin-1-yl)-2-oxoacetamide]	< 100	> 50	5 to 50	< 75	C (“C” indicates an IC50 ratio of less than 15 fold)	
CCc1cc(NC(=O)C(=O)N2C[C@H](C)CC[C@@H]2c2ccc3sc([C@H]4C[C@H](N(C)C)C4)nc3c2)cnc1N [Compound 119, N-(6-amino-5-ethyl-3-pyridyl)-2-oxo-2-[(2R,5R)-2-[2-[3-(dimethylamino)cyclobutyl]-1,3-benzothiazol-5-yl]-5-methyl-1-piperidyl]acetamide]	> 1000	> 50	> 50	> 125	C (“C” indicates an IC50 ratio of less than 15 fold)	
COc1ncc(NC(=O)C(=O)N2C[C@@H](C)CC[C@@H]2c2ccc3sc(CC(C)(C)N(C)C)nc3c2)cc1C(N)=O [Compound 120, 5-(2-((2R,5S)-2-(2-(2-(dimethylamino)-2-methylpropyl)benzo[d]thiazol-5-yl)-5-methylpiperidin-1-yl)-2-oxoacetamido)-2-methoxynicotinamide]	< 100	> 50	< 5	< 75	A (“A” indicates an IC50 ratio greater than or equal to 30 fold)	
COc1ncc(NC(=O)C(=O)N2C[C@@H](C)CC[C@@H]2c2ccc3sc(C4(C)CCN(C)CC4)nc3c2)cc1C(N)=O [Compound 122, 5-(2-((2R,5S)-2-(2-(1,4-dimethylpiperidin-4-yl)benzo[d]thiazol-5-yl)-5-methylpiperidin-1-yl)-2-oxoacetamido)-2-methoxynicotinamide]	< 100		< 5	< 75	A (“A” indicates an IC50 ratio greater than or equal to 30 fold)	> 50
CCc1cc(NC(=O)C(=O)N2C[C@@H](C)CC[C@@H]2c2ccc3ccc(C4CCN(C)CC4)cc3c2)cnc1N [Compound 123, N-(6-amino-5-ethylpyridin-3-yl)-2-((2R,5S)-5-methyl-2-(7-(1-methylpiperidin-4-yl)naphthalen-2-yl)piperidin-1-yl)-2-oxoacetamide]	< 100	> 50	< 5	< 75	A (“A” indicates an IC50 ratio greater than or equal to 30 fold)	
COc1ncc(NC(=O)C(=O)N2C[C@@H](C)CC[C@@H]2c2ccc3sc([C@H]4CN(C)CCO4)nc3c2)cc1C(N)=O [Compound 124]	100 to 1000	> 50	5 to 50	> 125	A (“A” indicates an IC50 ratio greater than or equal to 30 fold)	
COc1ncc(NC(=O)C(=O)N2C[C@@H](C)CC[C@@H]2c2ccc3ccc(N4CCN(C)CC4)nc3c2)cc1C(N)=O [Compound 126, 2-methoxy-5-(2-((2R,5S)-5-methyl-2-(2-(4-methylpiperazin-1-yl)quinolin-7-yl)piperidin-1-yl)-2-oxoacetamido)nicotinamide]	< 100	> 50	< 5	< 75	A (“A” indicates an IC50 ratio greater than or equal to 30 fold)	
CCc1cc(NC(=O)C(=O)N2C[C@@H](C)CC[C@@H]2c2ccc3cn([C@@H]4CCN(C)C[C@@H]4C)nc3c2)cnc1N [Compound 127]	< 100	5 to 50	< 5	< 75	C (“C” indicates an IC50 ratio of less than 15 fold)	
CCc1cc(NC(=O)C(=O)N2C[C@@H](C)CC[C@@H]2c2ccc(F)c(OCCN(C)C)c2)cnc1N [Compound 128, N-(6-amino-5-ethylpyridin-3-yl)-2-((2R,5S)-2-(3-(2-(dimethylamino)ethoxy)-4-fluorophenyl)-5-methylpiperidin-1-yl)-2-oxoacetamide]	< 100	> 50	5 to 50	> 125	A (“A” indicates an IC50 ratio greater than or equal to 30 fold)	
